Experimental data published in ChEMBL document CHEMBL3885881, “DrugMatrix”.

Organism: Rattus norvegicus
Experiment: DrugMatrix - Regimen: Daily Repeat
Assay type: toxicity, organism-based, Sprague-Dawley
Set-up: regimen Daily Repeat, gender Male, age 6-8 weeks
Settings: in vivo, po, route oral GAVAGE, vehicle 100 % WATER; for ABSOLUTE BASOPHIL / ABSOLUTE EOSINOPHIL / ABSOLUTE LYMPHOCYTE / ABSOLUTE MONOCYTE / ABSOLUTE SEGMENTED NEUTROPHIL / BASOPHIL / EOSINOPHIL / ERYTHROCYTE COUNT / HEMATOCRIT / HEMOGLOBIN / LEUKOCYTE COUNT / LYMPHOCYTE / MEAN CORPUSCULAR HEMOGLOBIN / MEAN CORPUSCULAR HEMOGLOBIN CONCENTRATION / MEAN CORPUSCULAR VOLUME / MONOCYTE / NEUTROPHIL / NUCLEATED RED BLOOD CELLS / PLATELET COUNT: tissue Blood; for ALANINE AMINOTRANSFERASE / ALBUMIN / ALKALINE PHOSPHATASE / ASPARTATE AMINOTRANSFERASE / BLOOD UREA NITROGEN / CARBON DIOXIDE / CHLORIDE / CHOLESTEROL / CREATINE PHOSPHOKINASE / CREATININE / GLUCOSE / LACTATE DEHYDROGENASE / LIPASE / PHOSPHORUS / POTASSIUM / SODIUM / TOTAL BILIRUBIN / TOTAL PROTEIN / URIC ACID: tissue Plasma
[1] = 0 mg/kg, 72 h, dose level Control, time 3 day
[2] = 0 mg/kg, 120 h, dose level Control, time 5 day
[3] = 28 mg/kg, 72 h, dose level Low, time 3 day

SMILES: Cn1cc[nH]c1=S [METHIMAZOLE]
- ABSOLUTE BASOPHIL [1]: 0 CELLS/uL
- ABSOLUTE EOSINOPHIL [1]: 0 CELLS/uL
- ABSOLUTE LYMPHOCYTE [1]: 8482.5 CELLS/uL
- ABSOLUTE MONOCYTE [1]: 63.83 CELLS/uL
- ABSOLUTE SEGMENTED NEUTROPHIL [1]: 887 CELLS/uL
- BASOPHIL [1]: 0%
- EOSINOPHIL [1]: 0%
- ERYTHROCYTE COUNT [1]: 5.49 x10E6/uL
- HEMATOCRIT [1]: 34.5%
- HEMOGLOBIN [1]: 13.33 G/DL
- LEUKOCYTE COUNT [1]: 9.43 x10E3/uL
- LYMPHOCYTE [1]: 90.17%
- MEAN CORPUSCULAR HEMOGLOBIN [1]: 24.3 pg
- MEAN CORPUSCULAR HEMOGLOBIN CONCENTRATION [1]: 38.63 G/DL
- MEAN CORPUSCULAR VOLUME [1]: 62.88 fL
- MONOCYTE [1]: 0.67%
- NEUTROPHIL [1]: 9.17%
- NUCLEATED RED BLOOD CELLS [1]: 0.67 /100WBC
- PLATELET COUNT [1]: 1022.83 x10E3/uL
- ALANINE AMINOTRANSFERASE [1]: 50.5 u/L
- ALBUMIN [1]: 4.08 G/DL
- ALKALINE PHOSPHATASE [1]: 368.33 u/L
- ASPARTATE AMINOTRANSFERASE [1]: 87.5 u/L
- BLOOD UREA NITROGEN [1]: 12.83 mg/dL
- CARBON DIOXIDE [1]: 32.83 mmol/L
- CHLORIDE [1]: 99.67 MEQ/L
- CHOLESTEROL [1]: 79.67 mg/dL
- CREATINE PHOSPHOKINASE [1]: 585 u/L
- CREATININE [1]: 0.22 mg/dL
- GLUCOSE [1]: 135.67 mg/dL
- LACTATE DEHYDROGENASE [1]: 171 u/L
- LIPASE [1]: 9.5 u/L
- PHOSPHORUS [1]: 11.18 mg/dL
- POTASSIUM [1]: 6.25 MEQ/L
- SODIUM [1]: 144.87 MEQ/L
- TOTAL BILIRUBIN [1]: 0.2 mg/dL
- TOTAL PROTEIN [1]: 6.08 G/DL
- URIC ACID [1]: 0.65 mg/dL
- ABSOLUTE BASOPHIL [2]: 0 CELLS/uL
- ABSOLUTE EOSINOPHIL [2]: 14.5 CELLS/uL
- ABSOLUTE LYMPHOCYTE [2]: 7596.17 CELLS/uL
- ABSOLUTE MONOCYTE [2]: 69.67 CELLS/uL
- ABSOLUTE SEGMENTED NEUTROPHIL [2]: 503 CELLS/uL
- BASOPHIL [2]: 0%
- EOSINOPHIL [2]: 0.17%
- ERYTHROCYTE COUNT [2]: 5.49 x10E6/uL
- HEMATOCRIT [2]: 34.72%
- HEMOGLOBIN [2]: 13.47 G/DL
- LEUKOCYTE COUNT [2]: 8.18 x10E3/uL
- LYMPHOCYTE [2]: 92.17%
- MEAN CORPUSCULAR HEMOGLOBIN [2]: 24.57 pg
- MEAN CORPUSCULAR HEMOGLOBIN CONCENTRATION [2]: 38.82 G/DL
- MEAN CORPUSCULAR VOLUME [2]: 63.3 fL
- MONOCYTE [2]: 1%
- NEUTROPHIL [2]: 6.67%
- NUCLEATED RED BLOOD CELLS [2]: 0 /100WBC
- PLATELET COUNT [2]: 1141 x10E3/uL
- ALANINE AMINOTRANSFERASE [2]: 48.33 u/L
- ALBUMIN [2]: 4.07 G/DL
- ALKALINE PHOSPHATASE [2]: 395.67 u/L
- ASPARTATE AMINOTRANSFERASE [2]: 85.67 u/L
- BLOOD UREA NITROGEN [2]: 15.83 mg/dL
- CARBON DIOXIDE [2]: 31.33 mmol/L
- CHLORIDE [2]: 100.83 MEQ/L
- CHOLESTEROL [2]: 62.33 mg/dL
- CREATINE PHOSPHOKINASE [2]: 248.33 u/L
- CREATININE [2]: 0.2 mg/dL
- GLUCOSE [2]: 135.67 mg/dL
- LACTATE DEHYDROGENASE [2]: 141.33 u/L
- LIPASE [2]: 9.5 u/L
- PHOSPHORUS [2]: 10.73 mg/dL
- POTASSIUM [2]: 6.07 MEQ/L
- SODIUM [2]: 145.35 MEQ/L
- TOTAL BILIRUBIN [2]: 0.22 mg/dL
- TOTAL PROTEIN [2]: 6.12 G/DL
- URIC ACID [2]: 0.63 mg/dL
- ABSOLUTE BASOPHIL [3]: 0 CELLS/uL
- ABSOLUTE EOSINOPHIL [3]: 0 CELLS/uL
- ABSOLUTE LYMPHOCYTE [3]: 8790 CELLS/uL
- ABSOLUTE MONOCYTE [3]: 67.33 CELLS/uL
- ABSOLUTE SEGMENTED NEUTROPHIL [3]: 776 CELLS/uL
- BASOPHIL [3]: 0%
- EOSINOPHIL [3]: 0%
- ERYTHROCYTE COUNT [3]: 5.45 x10E6/uL
- HEMATOCRIT [3]: 33.93%
- HEMOGLOBIN [3]: 13.23 G/DL
- LEUKOCYTE COUNT [3]: 9.63 x10E3/uL
- LYMPHOCYTE [3]: 91.33%
- MEAN CORPUSCULAR HEMOGLOBIN [3]: 24.3 pg
- MEAN CORPUSCULAR HEMOGLOBIN CONCENTRATION [3]: 39 G/DL
- MEAN CORPUSCULAR VOLUME [3]: 62.37 fL
- MONOCYTE [3]: 0.67%
- NEUTROPHIL [3]: 8%
- NUCLEATED RED BLOOD CELLS [3]: 0.33 /100WBC
- PLATELET COUNT [3]: 926 x10E3/uL
- ALANINE AMINOTRANSFERASE [3]: 53.33 u/L
- ALBUMIN [3]: 4.17 G/DL
- ALKALINE PHOSPHATASE [3]: 410.67 u/L
- ASPARTATE AMINOTRANSFERASE [3]: 78 u/L
- BLOOD UREA NITROGEN [3]: 11.33 mg/dL
- CARBON DIOXIDE [3]: 33 mmol/L
- CHLORIDE [3]: 98.67 MEQ/L
- CHOLESTEROL [3]: 91.33 mg/dL
- CREATINE PHOSPHOKINASE [3]: 269.33 u/L
- CREATININE [3]: 0.34 mg/dL
- GLUCOSE [3]: 123 mg/dL
- LACTATE DEHYDROGENASE [3]: 147.67 u/L
- LIPASE [3]: 11 u/L
- PHOSPHORUS [3]: 10.97 mg/dL
- POTASSIUM [3]: 6.8 MEQ/L
- SODIUM [3]: 143.6 MEQ/L
- TOTAL BILIRUBIN [3]: 0.23 mg/dL
- TOTAL PROTEIN [3]: 6.13 G/DL
- URIC ACID [3]: 0.8 mg/dL
